Here are results for one compound from US20090247641A1, “HYDRAZONE AGENTS TO TREAT CUTANEOUS LESIONS” (priority 2005, published 2009).

What all share (type): in vivo, human
For data set [1], the system named is condyloma on cervix, low risk HPV in the 6/11 category. In words: Treatment of condyloma and HPV infection with 0.25% A-007 gel (case report). As for the experimental part: They also had atypical squamous epithelium and CIN with warts. The cervix was inflamed with squamous exo-cervical dysplasia and a warty labial growth. They were treated with 2 grams per day of 0.25% A-007 gel applied to the vagina for five days, for a total topical dose of 10 grams. […] The HPV infection was also eliminated, and was absent after 24 months of observation.

In data set [2] the test system is cervical warts, CIN II, high risk HPV infection. In words: Treatment of cervical warts, CIN II and high risk HPV infection with 0.25% gel (case report). As for the experimental part:
A person had multiple abnormal pap smears with hair loss and skin changes secondary to hormonal imbalance. […] They were treated with 2 grams per day of 0.25% gel applied to the vagina for five days, for a total topical dose of 10 grams.

The next data set concerns plantar warts. In words: Treatment of plantar warts with A-007 0.25% gel (case report). The text has this: Prior attempts at local surgical removal of the warts had failed. […] A-007 was applied in a 0.25% gel (2 g) nightly for three nights and covered with an absorbent pad to allow maximum penetration.

Molecules are shown by their SMILES.

For the compound `O=[N+]([O-])c1ccc(NN=C(c2ccc(O)cc2)c2ccc(O)cc2)c([N+](=O)[O-])c1` [A-007, 4,4′-dihydroxybenzophenone-2,4-dinitrophenylhydrazone], the “external warty mass (labial growth)” value in data set [1] (2 grams per day of 0.25% A-007 gel, vagina, five days) is recorded as “fell off the labia”. Further, the “HPV infection at follow-up” value in data set [1] (after 24 months of observation) was “absent”. Also, the HPV infection status entry in data set [1] (low risk HPV 6/11 at baseline, 2 grams per day of 0.25% A-007 gel, vagina, five days) is “eliminated”; in data set [2] (high risk HPV at baseline, 2 grams per day of 0.25% gel, vagina, five days), “converted to low grade”. For the same compound, the cervical condyloma entry in data set [1] (person, 2 grams per day of 0.25% A-007 gel applied to the vagina for five days, total 10 grams) is recorded as “disappeared”. The “warty lesions on cervix” value in data set [2] (2 grams per day of 0.25% gel, vagina, five days) is on record as “disappeared”. Besides, the CIN outcome in data set [2] (CIN II, 2 grams per day of 0.25% gel, vagina, five days) is listed as “resolved”. Further, in data set [2] (after 18 months of observation), the status at follow-up entry is listed as “stable”. Further, the toxicities result in data set [2] (person, 2 grams per day of 0.25% gel applied to the vagina for five days, total 10 grams) is “No toxicities were observed”. In addition, the “appearance of treated area” value in the data set with plantar warts (0.25% gel (2 g) nightly for three nights, after 7 days) is listed as “new skin appeared which was soft with no area of induration”. Moreover, the “recurrence of warts and induration” value in the data set on plantar warts (after two months of follow-up observation) was “Neither the warts nor induration returned”. In addition, in the data set on plantar warts (person, left foot, 0.25% gel (2 g) nightly for three nights under absorbent pad), the “time until treated area began peeling and new skin appeared” value turned out to be 7 days.
